The source of these data is US12063914B2, “DNA sequence that increases odorant receptor representation in the olfactory system” (Research Foundation of the City University of New York, priority 2015, dated 2024).

Molecules are shown by their SMILES.

For data set [1] the following is noted: at 25° C.; cited from earlier work.
A further data set deals with T1, M71 (Mus musculus, UniProt Q60893).
T1 construct: from ex vivo analysis of genetically defined M71 OSNs in gene-targeted mice; host or cells: dendritic knobs of M71-expressing olfactory sensory neurons from gene-targeted mice
T1 sequence (Q60893 1-309): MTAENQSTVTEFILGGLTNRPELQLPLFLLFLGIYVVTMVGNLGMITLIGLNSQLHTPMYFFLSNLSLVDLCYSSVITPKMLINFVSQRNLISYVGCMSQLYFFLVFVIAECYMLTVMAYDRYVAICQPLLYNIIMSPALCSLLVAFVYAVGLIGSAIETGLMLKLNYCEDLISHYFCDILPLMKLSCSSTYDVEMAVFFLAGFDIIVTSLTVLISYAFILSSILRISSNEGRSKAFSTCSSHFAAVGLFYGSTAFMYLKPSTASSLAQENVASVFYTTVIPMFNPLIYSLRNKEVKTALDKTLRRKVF
To be noted: previous ex vivo data; liquid phase; cited from earlier work.

Data set [2] has as its target T2, M71 OR (Mus musculus, UniProt Q60893).
T2 construct: the increase of OSNs expressing the M71 OR results in the coalescence of labeled axons; expressed in transfected cells; host or cells: olfactory sensory neurons of living transgenic mice (4•M71Cα, 5•M71Cα), made by pronuclear injection of the M71 minigene
T2 sequence (Q60893 1-309): T1 sequence (Q60893 1-309)
Briefly: In vivo synaptophluorin (SpH) imaging of odor-evoked glomerular activity in 4•M71Cα mice. Conditions: for efficacy [(dF/F)max]: 0.44 uM. The source says:
Because the M71 OR is dorsally expressed in the olfactory bulb, any cloned OR using the M71 transgenic backbone will coalesce its axons onto dorsally located glomeruli, which makes them accessible for optical imaging. Optical imaging was therefore used to functionally characterize transgenic M71 projections in the OB. To examine their functional properties odor-evoked activity was imaged from the OBs of mice expressing the genetically encoded activity reporter SpH in all mature OSNs. Simultaneously recordings were obtained from mice that are either hemizygous or homozygous for 4•M71Cα (gene-targeted M71-GFP is out crossed) and heterozygous for SpH and identify red M71 glomeruli. Seven different M71-selective ligands were used from ex vivo analysis of genetically defined M71 OSNs in gene-targeted mice: three of these ligands produced responses by SpH imaging: Acetophenone (ACP), 4-methyl acetophenone (4MACP) and 2,4-dimethyl acetophenone (24dMACP) when delivered at different odor dilutions varying between 0% and 15%. The maximum change in fluorescence [(dF/F)max] per odor concentration was calculated for each compound over a 14 s trial period having a pre-odor (3 s), odor (4 s) and post-odor (4 s) acquisition. dF/F values for all glomeruli were calculated with a standardized 50 μm window, which is fully contained in all imaged glomeruli of both hemi and homo 4•M71Cα animals. (FIG. 2A, FIG. 2B and FIG. 2C: Each data point represents the average (dF/F). of 4-16 glomeruli imaged). […] All imaged mice are heterozygous for omp-SpH.
Olfactometry: Odors (purchased form Sigma Aldrich) were delivered using a custom built olfactometer controlled by an Arduino board with custom shields operating Teflon solenoids (Neptune Research) and connected to two Mass Flow Controllers (Alicat Scientific, Inc) to dilute the clean air (N2, max flow is 2 Lpm) and to dilute the odorized air (max flow is 300 SCCM). Nitrogen (N2) was used as the vapor carrier to avoid oxidation. Odor concentrations are expressed a % dilutions of saturated vapor and as molar saturated vapor concentration (μM s.v.), calculated using published vapor pressures at 25° Celsius (US EPA, Estimation Programs Interface Suite, v 4.0. Flow diluted odors were delivered at 2 Lpm mixed prior to the delivery site with air odorized with varying dilutions of odorant taken from the saturated headspace of pre-cleaned amber vials with white polypropylene closures and septum (J. G. Finneran) containing 99% pure odorants. To avoid contamination of the olfactometer, odorized air was never passed through the Teflon valves. Instead, odors were mixed with N2 in T-shaped mixing chambers (Neptune Research) and delivered to the animal's nose using an arduino controlled vacuum system. […] Output of the olfactometer was calibrated using the tracer odor Pinene and a photoionization detector (PID; Aurora Scientific).
In vivo SpH Imaging: Mice were anesthetized using Ketamine (100 mg/kg)/Xylazin (5 mg/kg) and maintained with Isoflurane (2.5% in 02) and immobilized using a stereotactic head holding device (Narishige, Inc.). Optical signals for SpH and mCherry were recorded using an ANDOR Neo 5.5 sCMOS camera connected to a NIKON AZ100 epifluorescence microscope (NIS Elements) with a 4× objective (numerical aperture 0.4). Excitation wavelengths of 475 nm for SpH and 575 nm for mCherry and emission of 520 nm for SpH and 635 nm for mCherry were used to obtain images of the dorsolateral bulb through thinned skull overlaying the bulb of a freely breathing animal. Each imaging trial consisted of a pre-odor (3 s), odor (4 s) and post-odor (4 s) acquisition, with a total acquisition time per trial of 14 s (including 3 s of valve switch delay). Using serial code, the arduino controlling the olfactometer was integrated in the NIS Elements software, so that the entire image acquisition sequence and flow-diluted odor delivery is controlled by the microscope software. […]

In data set [3] the target is T2, M71 OR. Briefly: Two-bottle discrimination behavioral avoidance task (odor detection threshold) with 24dMACP. In kind it is in vivo. To be noted: naïve, 10^−6 dilution, 24 hr.

For the molecule `CC(=O)c1ccc(C)cc1C` [24dMACP, 2,4-dimethyl acetophenone], the “saturated vapor pressure (Ps)” value in data set [1] was 0.0811 mmHg. Also, the “elicit a M71 response ex vivo” value on M71 was “did”. Further, on M71 OR [2] (4•M71Cα animals, vapor phase, odor dilutions 0% to 15%), the “glomerular activity (in vivo SpH imaging)” value is “observed”. Besides, the “average highest (dF/F)max” value on M71 OR [2] (hemizygous 4•M71Cα animals, ACP at 1.77 uM, 4MACP at 0.69 uM, 24dMACP at 0.66 uM) is recorded as 4.15%. Besides, the “efficacy [(dF/F)max]” value at M71 OR [2] (hemizygous animals) came to 2.92%; on M71 OR [2] (homozygous animals) it was 4.92%. On M71 OR [2] (hemizygous animals, delivered at the same concentration, ˜0.70 uM), the “efficacy [average (dF/F)max]” value is 4.15%. Moreover, on M71 OR [2] (homozygous 4•M71Cα animals, ACP at 2.66 uM, 4MACP at 0.69 uM, 24dMACP at 0.46 uM), the “highest efficacy [(dF/F)max]” value came to 4.92%. For the same molecule, at M71 OR [2] (homozygous animals), the “average efficacy (of all concentrations and odors)” value was 4.92%. Besides, the entries for the “preference index (PI) for odorized water” value at M71 OR [3] (unconditioned 4•M71Cα Homo mice) and at M71 OR [3] (unconditioned WT mice) were 59% and 60%, respectively.
